Source: ChEMBL document CHEMBL1137289, “Structure-activity relationships of novel antibacterial translation inhibitors: 3,5-diamino-piperidinyl triazines” (Bioorg Med Chem Lett, 2006)
In brackets after ≈: the same amount, converted by molar mass.

Key:
Escherichia coli [1] = experiment: Inhibition of protein synthesis in Escherichia coli S30 extracts by coupled transcription-translation assay; format: functional
Escherichia coli [2] = experiment: microbe, parasite or virus in culture; conditions: ATCC 25922
Description: Antibacterial activity against Escherichia coli ATCC 25922

Pseudomonas aeruginosa = experiment: Antibacterial activity against Pseudomonas aeruginosa ATCC 27853; format: functional
[3] = (§1) Cytotoxicity against CEM T cells after 72 hrs by proliferation assay; format: cell-based, CCRF-CEM; conditions: human, CCRF-CEM (CEM) T cells
Staphylococcus aureus = experiment: microbe, parasite or virus in culture; conditions: ATCC 25923
Description: Antibacterial activity against Staphylococcus aureus ATCC 25923

Escherichia coli [4] = experiment: Antibacterial activity against wild type impermeable Escherichia coli LMG194; format: functional
Escherichia coli [5] = experiment: Antibacterial activity against isogenic permeable mutant Escherichia coli LMG194; format: functional
CCRF-CEM = experiment: as §1; format: cell-based; conditions: human, ccrf-cem, 72 h

| Molecule | IC50 (Escherichia coli [1]; Escherichia coli) [µM] | MIC (Escherichia coli [2]) [µg/mL] | MIC (Staphylococcus aureus) [µg/mL] | further results |
| --- | --- | --- | --- | --- |
| COc1cc(Nc2nc(N3C[C@H](N)C[C@H](N)C3)nc(N3C[C@H](N)C[C@H](N)C3)n2)ccc1NC(=O)c1ccc(Cl)cc1O | 8 | 4 (≈ 6.69 µM) |  |  |
| N[C@@H]1C[C@H](N)CN(c2nc(N3CCNCC3)nc(N3C[C@H](N)C[C@H](N)C3)n2)C1 | 23 |  |  |  |
| N[C@@H]1C[C@H](N)CN(c2nc(Nc3ccc(NC(=O)C(=O)c4c[nH]c5ccccc45)c(O)c3)nc(N3C[C@H](N)C[C@H](N)C3)n2)C1 | 4 | 1 (≈ 1.66 µM) | 16 (≈ 26.6 µM) | MIC (Pseudomonas aeruginosa): ≤ 0.5 µg/mL; CC50 at 72 h [3]: 92 µM |
| Cc1cc(C)cc(Nc2nc(N3C[C@H](N)C[C@H](N)C3)nc(N3C[C@H](N)C[C@H](N)C3)n2)c1 | 13 | 64 (≈ 150 µM) | 32 (≈ 75 µM) | MIC (Escherichia coli [4]): > 64 µg/mL |
| N[C@@H]1C[C@H](N)CN(c2nc(Nc3ccc(-c4ccccc4)cc3)nc(N3C[C@H](N)C[C@H](N)C3)n2)C1 | 9 | 16 (≈ 33.7 µM) |  |  |
| N[C@@H]1C[C@H](N)CN(c2nc(Nc3ccc4[nH]cnc4c3)nc(N3C[C@H](N)C[C@H](N)C3)n2)C1 | 14 | 64 (≈ 146 µM) |  |  |
| N[C@@H]1C[C@H](N)CN(c2nc(Nc3ccc(Cl)c(Cl)c3)nc(N3C[C@H](N)C[C@H](N)C3)n2)C1 | 7 | 32 (≈ 68.5 µM) |  |  |
| N[C@@H]1C[C@H](N)CN(c2nc(Nc3ccc(F)cc3)nc(N3C[C@H](N)C[C@H](N)C3)n2)C1 | 3 | 64 (≈ 154 µM) | 16 (≈ 38.4 µM) | MIC (Escherichia coli [4]): 32 µg/mL (≈ 76.8 µM); MIC (Escherichia coli [5]): 4 µg/mL (≈ 9.6 µM) |
| N[C@@H]1C[C@H](N)CN(c2nc(Nc3ccc(O)cc3)nc(N3C[C@H](N)C[C@H](N)C3)n2)C1 | 11 | > 64 | > 64 | MIC (Escherichia coli [4]): > 64 µg/mL |
| N[C@@H]1C[C@H](N)CN(c2nc(Nc3ccc(C(=O)N4CCc5cc(Br)ccc54)c(O)c3)nc(N3C[C@H](N)C[C@H](N)C3)n2)C1 | 9 | 2 (≈ 3.13 µM) |  |  |
| N[C@@H]1C[C@H](N)CN(c2nc(Nc3ccc(C(=O)CC(=O)Nc4ccc5c(c4)OC(F)(F)O5)cc3)nc(N3C[C@H](N)C[C@H](N)C3)n2)C1 | 6 | 4 (≈ 6.25 µM) | 8 (≈ 12.5 µM) | MIC (Pseudomonas aeruginosa): 1 µg/mL (≈ 1.56 µM); CC50 at 72 h [3]: 146 µM |
| N[C@@H]1C[C@H](N)CN(c2nc(Nc3ccc(NC(=O)c4ccc(Cl)cc4)c(O)c3)nc(N3C[C@H](N)C[C@H](N)C3)n2)C1 | 7 | 2 (≈ 3.52 µM) | 16 (≈ 28.2 µM) | MIC (Pseudomonas aeruginosa): ≤ 0.5 µg/mL; CC50 at 72 h [3]: 180 µM |
| N[C@@H]1C[C@H](N)CN(c2nc(Nc3ccc(S(N)(=O)=O)cc3)nc(N3C[C@H](N)C[C@H](N)C3)n2)C1 | 4 | > 64 | > 64 | MIC (Escherichia coli [4]): > 64 µg/mL |
| N[C@@H]1C[C@H](N)CN(c2nc(Nc3ccc(C(=O)CC(=O)Nc4ccc(-c5ccccc5)cc4)cc3)nc(N3C[C@H](N)C[C@H](N)C3)n2)C1 | 6 | 4 (≈ 6.29 µM) | 16 (≈ 25.2 µM) | MIC (Pseudomonas aeruginosa): ≤ 1 µg/mL; CC50 at 72 h [3]: 24 µM |
| Nc1ccc(Nc2nc(N3C[C@H](N)C[C@H](N)C3)nc(N3C[C@H](N)C[C@H](N)C3)n2)cc1 | 8 |  |  |  |
| N[C@@H]1C[C@H](N)CN(c2nc(Nc3ccc(NC(=O)c4cccc(O)c4O)cc3)nc(N3C[C@H](N)C[C@H](N)C3)n2)C1 | 5 | 8 (≈ 14.6 µM) |  |  |
| COc1ccc(Nc2nc(N3C[C@H](N)C[C@H](N)C3)nc(N3C[C@H](N)C[C@H](N)C3)n2)cc1 | 14 | > 64 | > 64 | MIC (Escherichia coli [4]): > 64 µg/mL |
| N[C@@H]1C[C@H](N)CN(c2nc(N3C[C@H](N)C[C@H](N)C3)nc(N3CCc4cc(Br)ccc43)n2)C1 | 5 | 16 (≈ 31.8 µM) |  |  |
| N[C@@H]1C[C@H](N)CN(c2nc(Nc3ccccc3)nc(N3C[C@H](N)C[C@H](N)C3)n2)C1 | 7 | > 64 | > 64 | MIC (Escherichia coli [4]): > 64 µg/mL |
| N[C@@H]1C[C@H](N)CN(c2nc(Nc3ccc(Br)cc3)nc(N3C[C@H](N)C[C@H](N)C3)n2)C1 | 4 | > 64 | > 64 | MIC (Escherichia coli [4]): > 64 µg/mL; MIC (Escherichia coli [5]): 4 µg/mL (≈ 8.38 µM) |
| N[C@@H]1C[C@H](N)CN(c2nc(Nc3ccc(NC(=O)c4ccc5ccccc5c4O)cc3)nc(N3C[C@H](N)C[C@H](N)C3)n2)C1 | 10 | 1 (≈ 1.71 µM) | 2 (≈ 3.43 µM) | MIC (Pseudomonas aeruginosa): 1 µg/mL (≈ 1.71 µM); CC50 at 72 h [3]: 140 µM |
| CN(C)c1ccc(Nc2nc(N3C[C@H](N)C[C@H](N)C3)nc(N3C[C@H](N)C[C@H](N)C3)n2)cc1 | 11 | > 64 | > 64 | MIC (Escherichia coli [4]): > 64 µg/mL |
| CNc1nc(N2C[C@H](N)C[C@H](N)C2)nc(N2C[C@H](N)C[C@H](N)C2)n1 | 62 |  |  |  |
| N[C@@H]1C[C@H](N)CN(c2nc(Cl)nc(N3C[C@H](N)C[C@H](N)C3)n2)C1 | 42 |  |  |  |
| CCN(CC)c1nc(N2C[C@H](N)C[C@H](N)C2)nc(N2C[C@H](N)C[C@H](N)C2)n1 | 180 |  |  |  |

| Molecule | IC50 (Escherichia coli [1]; Escherichia coli) [µM] | MIC (Escherichia coli [2]) [µg/mL] | MIC (Staphylococcus aureus) [µg/mL] | further results |
| --- | --- | --- | --- | --- |
| CN(C)c1nc(N2C[C@H](N)C[C@H](N)C2)nc(N2C[C@H](N)C[C@H](N)C2)n1 | 290 |  |  |  |
| N[C@@H]1C[C@H](N)CN(c2nc(NC3CCCCC3)nc(N3C[C@H](N)C[C@H](N)C3)n2)C1 | 63 |  |  |  |
| N[C@@H]1C[C@H](N)CN(c2nc(Nc3ccc4c(c3)CCC4)nc(N3C[C@H](N)C[C@H](N)C3)n2)C1 | 15 | > 64 | 32 (≈ 73 µM) | MIC (Escherichia coli [4]): 64 µg/mL (≈ 146 µM); MIC (Escherichia coli [5]): 8 µg/mL (≈ 18.2 µM) |
| COc1cccc(Nc2nc(N3C[C@H](N)C[C@H](N)C3)nc(N3C[C@H](N)C[C@H](N)C3)n2)c1NC(=O)c1ccc(Cl)cc1O | 30 | > 64 |  |  |
| Cc1ccc(S(=O)(=O)N(Cc2ccccc2)c2ccc(Nc3nc(N4C[C@H](N)C[C@H](N)C4)nc(N4C[C@H](N)C[C@H](N)C4)n3)cc2O)cc1 | 4 | 4 (≈ 5.94 µM) | 16 (≈ 23.7 µM) | MIC (Pseudomonas aeruginosa): 16 µg/mL (≈ 23.7 µM); CC50 at 72 h [3]: 68 µM |
| N[C@@H]1C[C@H](N)CN(c2nc(Nc3ccccc3F)nc(N3C[C@H](N)C[C@H](N)C3)n2)C1 | 5 | > 64 | > 64 | MIC (Escherichia coli [4]): > 64 µg/mL |
| CN(C)[C@@H]1C(O)=C(C(N)=O)C(=O)[C@@]2(O)C(O)=C3C(=O)c4c(O)cccc4[C@@](C)(O)[C@H]3C[C@@H]12 [TETRACYCLINE] | 2.8 |  |  |  |
| GENTAMICIN |  |  |  | IC50 (Escherichia coli [1]): 0.03 µM; CC50 (CCRF-CEM): > 300 µM |
| N[C@@H]1C[C@H](N)CN(c2nc(Nc3cccc(C(F)(F)F)c3)nc(N3C[C@H](N)C[C@H](N)C3)n2)C1 | 5 | 32 (≈ 68.6 µM) | 16 (≈ 34.3 µM) | MIC (Escherichia coli [4]): 32 µg/mL (≈ 68.6 µM); MIC (Escherichia coli [5]): 4 µg/mL (≈ 8.57 µM) |
| O=C(N[C@H](CO)[C@H](O)c1ccc([N+](=O)[O-])cc1)C(Cl)Cl [CHLORAMPHENICOL] | 1.5 | 4 (≈ 12.4 µM) | 8 (≈ 24.8 µM) | MIC (Pseudomonas aeruginosa): > 64 µg/mL |
| N[C@@H]1C[C@H](N)CN(c2nc(Nc3ccc(C(=O)Nc4ccc5[nH]cnc5c4)c(O)c3)nc(N3C[C@H](N)C[C@H](N)C3)n2)C1 | 4 | 8 (≈ 13.9 µM) |  |  |
| N[C@@H]1C[C@H](N)CN(c2nc(Nc3ccon3)nc(N3C[C@H](N)C[C@H](N)C3)n2)C1 | 9 |  |  |  |
| NC[C@H]1O[C@H](O[C@H]2[C@H](O)[C@@H](O[C@H]3O[C@H](CO)[C@@H](O)[C@H](N)[C@H]3O)[C@H](N)C[C@@H]2N)[C@H](O)[C@@H](O)[C@@H]1O [KANAMYCIN] | 0.4 |  |  |  |
| N[C@@H]1C[C@H](N)CN(c2nc(Nc3ccc(C(=O)Nc4ccc(Cl)c(Cl)c4)c(O)c3)nc(N3C[C@H](N)C[C@H](N)C3)n2)C1 | 10 | 2 (≈ 3.32 µM) |  |  |
| Nc1nc(N2C[C@H](N)C[C@H](N)C2)nc(N2C[C@H](N)C[C@H](N)C2)n1 | 92 |  |  |  |
| N[C@@H]1C[C@H](N)CN(c2nc(Nc3cccc(NC(=O)c4cccc(O)c4O)c3)nc(N3C[C@H](N)C[C@H](N)C3)n2)C1 | 4 | 8 (≈ 14.6 µM) |  |  |
| N[C@@H]1C[C@H](N)CN(c2nc(Nc3ccc(C(=O)CC(=O)Nc4ccc(F)c(F)c4)cc3)nc(N3C[C@H](N)C[C@H](N)C3)n2)C1 | 9 | 4 (≈ 6.72 µM) | 16 (≈ 26.9 µM) | MIC (Pseudomonas aeruginosa): 1 µg/mL (≈ 1.68 µM); CC50 at 72 h [3]: 179 µM |
| N[C@@H]1C[C@H](N)CN(c2nc(NC3CCNC3)nc(N3C[C@H](N)C[C@H](N)C3)n2)C1 (stereo not given in full) | 36 |  |  |  |
| N[C@@H]1C[C@H](N)CN(c2nc(Nc3ccc([N+](=O)[O-])cc3)nc(N3C[C@H](N)C[C@H](N)C3)n2)C1 | 4 | 32 (≈ 72.2 µM) | 32 (≈ 72.2 µM) | MIC (Escherichia coli [4]): 32 µg/mL (≈ 72.2 µM); MIC (Escherichia coli [5]): 4 µg/mL (≈ 9.02 µM) |
| Cc1ccc2nc(-c3ccc(Nc4nc(N5C[C@H](N)C[C@H](N)C5)nc(N5C[C@H](N)C[C@H](N)C5)n4)cc3)sc2c1 | 10 | 2 (≈ 3.66 µM) | 2 (≈ 3.66 µM) | CC50 at 72 h [3]: 33 µM |
| N[C@@H]1C[C@H](N)CN(c2nc(Nc3ccncc3)nc(N3C[C@H](N)C[C@H](N)C3)n2)C1 | 32 |  |  |  |
| N[C@@H]1C[C@H](N)CN(c2nc(Nc3ccc(C(=O)CC(=O)Nc4ccccc4Cl)cc3)nc(N3C[C@H](N)C[C@H](N)C3)n2)C1 | 4 | 4 (≈ 6.73 µM) | 16 (≈ 26.9 µM) | MIC (Pseudomonas aeruginosa): ≤ 1 µg/mL; CC50 at 72 h [3]: 71 µM |
| NNc1nc(N2C[C@H](N)C[C@H](N)C2)nc(N2C[C@H](N)C[C@H](N)C2)n1 | 170 |  |  |  |
| N[C@@H]1C[C@H](N)CN(c2nc(Nc3ccc(C(=O)CC(=O)Nc4cccc(Br)c4)cc3)nc(N3C[C@H](N)C[C@H](N)C3)n2)C1 | 5 | 2 (≈ 3.13 µM) | 16 (≈ 25.1 µM) | MIC (Pseudomonas aeruginosa): ≤ 1 µg/mL; CC50 at 72 h [3]: 124 µM |
| N[C@@H]1C[C@H](N)CN(c2nc(NO)nc(N3C[C@H](N)C[C@H](N)C3)n2)C1 | 45 |  |  |  |
